Data on nine compounds can be found in PubChem BioAssay (NCI).

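Compound exposure: 48 hours, 5 concentrations, 96-well plates. GI50 marks 50% less growth. Definition used: TGI = concentration required for complete inhibition of growth.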 Bounds are passed on as bounds.

Among the test systems are 786-0 renal; A498 renal; COLO 205 colon; HCT-116 colon; KM12 colon; OVCAR-4 ovarian; RPMI-8226 leukemia; RXF 393 renal; SK-MEL-28 melanoma; SNB-19 CNS.
Test in all cases: DTP human tumour cell line panel, 48 h

Take `CCOC(=O)c1cnc(SCc2ccc(Cl)c(Cl)c2)nc1N1CC1`: the GI50 (usually the concentration at which growth is held to half of that of the control) with 786-0 renal is 3.24 µM; with A498 renal, 2.82 µM; in the test with COLO 205 colon, 2.9 µM; in the test with HCT-116 colon it was 0.9 µM; with KM12 colon it was 3.13 µM; in the test on OVCAR-4 ovarian it was 3.17 µM. The GI50 is 2.54 µM with RPMI-8226 leukemia, 4.04 µM in the test on RXF 393 renal, 5.88 µM with SK-MEL-28 melanoma and 6.93 µM in the test on SNB-19 CNS. Moreover, the concentration for total growth inhibition (TGI) (commonly the concentration giving total growth inhibition) is 14.1 µM in the test on 786-0 renal; 14.4 µM in the test on A498 renal; 13.2 µM in the test on COLO 205 colon; 10.9 µM in the test with HCT-116 colon; 12.5 µM with KM12 colon; 14 µM in the test with OVCAR-4 ovarian. Moreover, the TGI with RPMI-8226 leukemia worked out at 9.64 µM; with RXF 393 renal it was 16.2 µM; in the test on SK-MEL-28 melanoma it was 19.9 µM; in the test with SNB-19 CNS, 23.8 µM.

As for `O=[N+]([O-])c1ccc(N/N=C\c2cc(Cl)ccc2O)nc1`, the GI50 in the test with 786-0 renal was 2.18 µM; with A498 renal, 17 µM; in the test on COLO 205 colon, 5.06 µM; in the test on HCT-116 colon it was 1.2 µM; in the test with KM12 colon, 1.06 µM; in the test with OVCAR-4 ovarian, 1.72 µM. The GI50 in the test with RPMI-8226 leukemia was 0.987 µM; in the test on RXF 393 renal it was 5.66 µM; in the test with SK-MEL-28 melanoma, 3.65 µM; in the test with SNB-19 CNS it was 3.41 µM. In addition, the total growth inhibition concentration (TGI) in the test with 786-0 renal is 11.2 µM; in the test with A498 renal, over 100 µM; in the test on COLO 205 colon, over 100 µM; in the test with HCT-116 colon it was 12.5 µM; in the test on KM12 colon it was over 100 µM; with OVCAR-4 ovarian, 13.7 µM. In addition, the TGI in the test with RPMI-8226 leukemia was over 100 µM; in the test with RXF 393 renal, 38.8 µM; in the test on SK-MEL-28 melanoma, over 100 µM; in the test on SNB-19 CNS it was over 100 µM.

For `COc1cc(O)c(C(=O)/C=C/c2ccccc2)c(OC)c1`, the TGI in the test with 786-0 renal came out at 21.6 µM; in the test with A498 renal, 16.5 µM; in the test on COLO 205 colon it was 28 µM; with HCT-116 colon, 20.1 µM; with KM12 colon, 13.6 µM; in the test with OVCAR-4 ovarian it was 26.8 µM. Also, the TGI in the test on RPMI-8226 leukemia was found to be 10.3 µM; in the test on RXF 393 renal it was 32.8 µM; with SK-MEL-28 melanoma, 13.1 µM; in the test on SNB-19 CNS, 14.6 µM.

For the compound `Cc1cc(Br)cc(C)c1NC(=O)C(=O)CC(=O)c1sc(-n2nc(-c3ccccc3)cc2-c2ccccc2)nc1C`, the TGI with 786-0 renal, in the test with A498 renal, in the test on COLO 205 colon, with HCT-116 colon, in the test with KM12 colon and with OVCAR-4 ovarian was over 100 µM each time. In addition, the TGI with RPMI-8226 leukemia, with RXF 393 renal, in the test with SK-MEL-28 melanoma and with SNB-19 CNS was over 100 µM throughout.

On to `COc1cc(C(=O)O)c([N+](=O)[O-])c(OC)c1OC`, for which the TGI in the test on 786-0 renal, with A498 renal, in the test on COLO 205 colon, in the test on HCT-116 colon, in the test with KM12 colon and in the test on OVCAR-4 ovarian was over 100 µM throughout. In addition, the TGI with RPMI-8226 leukemia, with RXF 393 renal, in the test with SK-MEL-28 melanoma and in the test on SNB-19 CNS was over 100 µM each time.

Consider `COC(=O)[C@]12CC[C@@H](C)[C@H](C)[C@@H]1C1=CC[C@@H]3[C@@]4(C)CC(=O)[C@H](O)[C@@]5(C)COC(=C45)C[C@@]3(C)[C@]1(C)CC2`, for which the GI50 was 17.8 µM with 786-0 renal; 18.5 µM in the test with A498 renal; 17.9 µM with COLO 205 colon; 18.7 µM in the test on HCT-116 colon; 17.7 µM in the test with KM12 colon; 17.1 µM with OVCAR-4 ovarian. Also, the GI50 in the test with RPMI-8226 leukemia was 21 µM; in the test with RXF 393 renal, 15.2 µM; in the test on SK-MEL-28 melanoma, 19.2 µM; with SNB-19 CNS it was 19 µM. Further, the TGI stood at 34.2 µM in the test with 786-0 renal; 33.2 µM in the test on A498 renal; 33.5 µM in the test with COLO 205 colon; 34.3 µM in the test with HCT-116 colon; 33.8 µM in the test with KM12 colon; 36 µM with OVCAR-4 ovarian. The TGI came out at 45.7 µM in the test with RPMI-8226 leukemia, 31.4 µM with RXF 393 renal, 38.6 µM with SK-MEL-28 melanoma and 42.1 µM in the test on SNB-19 CNS.

For `N[C@H]1C2C3CC4C5CC(C42)C1(c1ccccc1)C53` (stereo not given in full), the TGI in the test with 786-0 renal, in the test with A498 renal, in the test on COLO 205 colon, in the test on HCT-116 colon, with KM12 colon and in the test on OVCAR-4 ovarian was over 100 µM throughout. The TGI with RPMI-8226 leukemia, with RXF 393 renal, in the test with SK-MEL-28 melanoma and in the test with SNB-19 CNS was over 100 µM throughout.

In the case of `O=C(c1cccs1)c1c(C(F)(F)F)n([O-])c2ccc(C(F)(F)F)cc2[n+]1=O`, the GI50 was 0.188 µM in the test on 786-0 renal; 1.65 µM in the test with A498 renal; 0.328 µM in the test on COLO 205 colon; 0.17 µM in the test with HCT-116 colon; 0.295 µM with KM12 colon; 0.224 µM in the test on OVCAR-4 ovarian. The GI50 in the test on RPMI-8226 leukemia is 0.279 µM; in the test on RXF 393 renal, 0.195 µM; with SK-MEL-28 melanoma, 0.451 µM; with SNB-19 CNS it was 1.11 µM. Further, the TGI in the test with 786-0 renal stood at 0.339 µM; in the test on A498 renal, 3.04 µM; in the test on COLO 205 colon, 0.909 µM; in the test on HCT-116 colon, 0.314 µM; in the test on KM12 colon, 0.774 µM; in the test on OVCAR-4 ovarian it was 0.531 µM. Also, the TGI amounted to 1.12 µM with RPMI-8226 leukemia, 0.387 µM in the test with RXF 393 renal, 0.908 µM in the test on SK-MEL-28 melanoma and 2.53 µM in the test with SNB-19 CNS.

Turning to `Cn1cc(-c2ccc(=O)n(Cc3cccc(-c4ncc(OCCN5CCOCC5)cn4)c3)n2)cn1`, the GI50 in the test with 786-0 renal was over 100 µM; with A498 renal it was 60.1 µM; in the test on COLO 205 colon, 53.7 µM; with HCT-116 colon, 56.5 µM; with KM12 colon it was 52.2 µM; in the test with OVCAR-4 ovarian it was 33.5 µM. The GI50 in the test with RPMI-8226 leukemia is 34 µM; in the test with RXF 393 renal, over 75.4 µM; with SK-MEL-28 melanoma it was over 89.5 µM; in the test with SNB-19 CNS, over 87.4 µM. The TGI in the test with 786-0 renal, with A498 renal, in the test on COLO 205 colon, in the test with HCT-116 colon, in the test on KM12 colon and in the test on OVCAR-4 ovarian was over 100 µM each time. Further, the TGI in the test on RPMI-8226 leukemia, in the test with RXF 393 renal, in the test with SK-MEL-28 melanoma and in the test with SNB-19 CNS was over 100 µM each time.
